PubChem BioAssay AID1918937 (Molecular Pharmacology Branch, DTP, NCI, 2023)
Where “and” joins values, the source holds several entries; their conditions need not be identical. Identical values can stand only once. One block for each molecule: values may come before it.

Tested on: 521955-158-R2-J5-PDC complex spheroid viability
Assay: Anticancer human tumor 521955-158-R2-J5-PDC patient-derived pancreatic carcinoma cell line growth inhibition
Conditions: for viability, T/C: stronger effect = lower value
Description: Multicellular complex tumor spheroid response to LSD1 Inhibitor Iadademstat in combination with a variety of drugs and investigational agents in selected tumor cell lines
The current study was undertaken to assess response to LSD1 inhibitors in combination with standard-of-care drugs and investigational agents in solid tumor complex spheroid models as well as in the K-562 leukemia. Complex spheroids include a stromal component modeled by human endothelial cells (HUVEC) and fibroblasts modeled by human mesenchymal stem cells (MSCs). The concentration ranges selected for each drug and investigational agent were based upon clinically achievable concentrations if the clinical Cmax of the agent was known.
Compounds. The drugs and investigational agents used in this study are listed on Table 1. All of the agents used, including staurosporine (NSC755774) and gemcitabine (NSC613327), were obtained from the Developmental Therapeutics Program, NCI. FDA-approved anticancer drugs are available from the NCI at http://dtp.nci.nih.gov/branches/dscb/oncology_drugset_explanation.html. Drugs and investigational agents were >95% pure by proton nuclear magnetic resonance (NMR) and liquid chromatography/mass spectrometry (LC/MS). Stock solutions were prepared at 400x in DMSO, stored at -70 degrees C, and diluted in fresh medium prior to their use. The final concentration of DMSO in cell culture wells never exceeded 0.25% (v/v). The FDA-approved anticancer drug set is available from the Developmental Therapeutics Program at https://dtp.cancer.gov/organization/dscb/obtaining/available_plates.htm. All drugs and investigational agents were tested over a range starting from a high concentration at or near the clinical Cmax and decreasing in half-log increments. If the clinical Cmax for an agent had not been determined, the highest concentration tested was 10 microM.
Cell Lines. The patient-derived cancer cell (PDC) lines: 292921-168-R-J2-PDC, K24384-001-R-PDC, and 521955-158-R2-J5-PDC pancreatic carcinomas, 556581-035-R-J1 ovarian carcinoma, 324938-238-R-J1-PDC, 855422-203-R-J1-PDC and 883617-216-R-J1-PDC urothelial bladder carcinomas, 743489-274-T-PDC renal cell carcinoma, 138582-R-J1 Merkel cell tumor, K60290-347-R-J1 and K57222-313-R-J1-PDC glioblastomas, 653999-131-R-J2-PDC, LG0703-F948-PDC, and 349418-098-R-PDC non-small cell lung carcinomas, 885512-296-R-J2-PDC, 171881-019-R-J1-PDC breast carcinomas and 186277-243-T-J2-PDC and 233499-124-R-J2-PDC colon carcinomas were obtained from the NCI Patient-Derived Models Repository (PDMR, https://pdmr.cancer.gov). The established cell lines NCI/ADR-RES (RRID:CVCL_14520 and OVCAR-5 (RRID:CVCL_1628) ovarian carcinomas, 786-O (RRID:CVCL_1051) and A498 (RRID:CVCL_A498) renal cell carcinoma, NCI-H211 (ATCC, cat. CRL-5824; RRID:CVCL_1529), NCI-H196 (ATCC, cat. CRL-5823, RRID:CVCL_1509), SW 1271 (ATCC, cat. CRL-2177, RRID:CVCL_1716) and NCI-H1876 (ATCC, cat. CRL-5902, RRID:CVCL_1503) small cell lung carcinomas, MDA-MB-231 (RRID:CVCL_0062) and MDA-MB-468 (RRID:CVCL_0419)breast carcinomas (10-12). Pooled donor human umbilical vein endothelial cells (HUVEC, Lonza, cat. CC-2519) and human mesenchymal stem cells (hMSC, Lonza, cat. PT-2501) were purchased from Lonza (Walkersville, MD).
Cell Culture. All cells were maintained in an incubator at 37 degrees C and 5% CO2 with 95% humidity. The PDC lines were cultured according to standard operating procedures established by the NCI PDMR (https://pdmr.cancer.gov). Briefly all PDCs were thawed and cultured in Matrigel-coated flasks prepared with a working solution of 1X Ham's F-12 nutrient mix, without supplementation (Invitrogen, Waltham, MA, cat. 11765054), 100 U/mL penicillin-streptomycin (Invitrogen, cat. 15140122), and 2.5% Matrigel (Corning Inc., Corning, NY, cat. 354248) for the first three passages. […]

[1] = curve of first compound, second compound 0.1 µM
[2] = curve of first compound, second compound 0.316 µM
[3] = curve of first compound, second compound 1 µM
[4] = curve of first compound, second compound 3.16 µM
[5] = curve of first compound, second compound 10 µM
[6] = second compound 0.1 µM, first compound 0.00949 µM
[7] = second compound 0.1 µM, first compound 0.03 µM
[8] = second compound 0.1 µM, first compound 0.0949 µM
[9] = second compound 0.1 µM, first compound 0.3 µM
[10] = second compound 0.316 µM, first compound 0.00949 µM
[11] = second compound 0.316 µM, first compound 0.03 µM
[12] = second compound 0.316 µM, first compound 0.0949 µM
[13] = second compound 0.316 µM, first compound 0.3 µM
[14] = second compound 1 µM, first compound 0.00949 µM
[15] = second compound 1 µM, first compound 0.03 µM
[16] = second compound 1 µM, first compound 0.0949 µM
[17] = second compound 1 µM, first compound 0.3 µM
[18] = second compound 3.16 µM, first compound 0.00949 µM
[19] = second compound 3.16 µM, first compound 0.03 µM
[20] = second compound 3.16 µM, first compound 0.0949 µM
[21] = second compound 3.16 µM, first compound 0.3 µM
[22] = second compound 10 µM, first compound 0.00949 µM
[23] = second compound 10 µM, first compound 0.03 µM
[24] = second compound 10 µM, first compound 0.0949 µM
[25] = second compound 10 µM, first compound 0.3 µM
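Also: spheroids exposed to agents for seven days.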
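For viability, T/C in this document: percent of DMSO vehicle control luminescence viability.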

Compound: Nc1ccn(C2OC(CO)C(O)C2(F)F)c(=O)n1 (configuration not stated) + NC1CC1c1ccc(-c2cccc(O)c2)cc1
IC50 [1]: 66.8 nM | IC50 [2]: 70.8 nM | IC50 [3]: 69.9 nM | IC50 [4]: 57 nM | IC50 [5]: 36.5 nM | viability, T/C (second compound 0.1 µM, first compound 0.000949 µM): 86.9% | viability, T/C (second compound 0.1 µM, first compound 0.003 µM): 86.4% | viability, T/C [6]: 84% | viability, T/C [7]: 66.8% | viability, T/C [8]: 42.8% | viability, T/C [9]: 23.4% | viability, T/C (second compound 0.316 µM, first compound 0.000949 µM): 83.2% | viability, T/C (second compound 0.316 µM, first compound 0.003 µM): 89.1% | viability, T/C [10]: 79.1% | viability, T/C [11]: 66% | viability, T/C [12]: 44.9% | viability, T/C [13]: 24.9% | viability, T/C (second compound 1 µM, first compound 0.000949 µM): 90.8% | viability, T/C (second compound 1 µM, first compound 0.003 µM): 84% | viability, T/C [14]: 87.3% | viability, T/C [15]: 63.3% | viability, T/C [16]: 45.8% | viability, T/C [17]: 26.5% | viability, T/C (second compound 3.16 µM, first compound 0.000949 µM): 90.1% | viability, T/C (second compound 3.16 µM, first compound 0.003 µM): 94.8% | viability, T/C [18]: 92% | viability, T/C [19]: 67.7% | viability, T/C [20]: 36.3% | viability, T/C [21]: 27.5% | viability, T/C (second compound 10 µM, first compound 0.000949 µM): 97.4% | viability, T/C (second compound 10 µM, first compound 0.003 µM): 87.9% | viability, T/C [22]: 80.3% | viability, T/C [23]: 52.5% | viability, T/C [24]: 36% | viability, T/C [25]: 33.9%

Compound: O=C(C=Cc1cccc(S(=O)(=O)Nc2ccccc2)c1)NO + NC1CCC(NC2CC2c2ccccc2)CC1
IC50 [1]: > 3000 nM | IC50 [2]: > 3000 nM | IC50 [3]: > 3000 nM | IC50 [4]: 294 nM | IC50 [5]: 895 nM | viability, T/C [6]: 106% | viability, T/C [7]: 112% | viability, T/C [8]: 88.3% | viability, T/C [9]: 43.7% | viability, T/C (second compound 0.1 µM, first compound 0.949 µM): 16.5% | viability, T/C (second compound 0.1 µM, first compound 3 µM): 104% | viability, T/C [10]: 112% | viability, T/C [11]: 104% | viability, T/C [12]: 90.1% | viability, T/C [13]: 46.7% | viability, T/C (second compound 0.316 µM, first compound 0.949 µM): 11.5% | viability, T/C (second compound 0.316 µM, first compound 3 µM): 98.8% | viability, T/C [14]: 96.9% | viability, T/C [15]: 97.3% | viability, T/C [16]: 81.4% | viability, T/C [17]: 53% | viability, T/C (second compound 1 µM, first compound 0.949 µM): 13% | viability, T/C (second compound 1 µM, first compound 3 µM): 88% | viability, T/C [18]: 99.4% | viability, T/C [19]: 102% | viability, T/C [20]: 84.6% | viability, T/C [21]: 50.1% | viability, T/C (second compound 3.16 µM, first compound 0.949 µM): 6.88% | viability, T/C (second compound 3.16 µM, first compound 3 µM): 89.7% | viability, T/C [22]: 99.9% | viability, T/C [23]: 97.2% | viability, T/C [24]: 79.5% | viability, T/C [25]: 51.5% | viability, T/C (second compound 10 µM, first compound 0.949 µM): 11.2% | viability, T/C (second compound 10 µM, first compound 3 µM): 88%

Compound: CC(C)CC(NC(=O)CNC(=O)c1cc(Cl)ccc1Cl)B1OC(=O)CC(CC(=O)O)(C(=O)O)O1 (configuration not stated) + NC1CCC(NC2CC2c2ccccc2)CC1
IC50 [1]: 5.31 nM | IC50 [2]: 5.02 nM | IC50 [3]: 4.9 nM | IC50 [4]: 5.38 nM | IC50 [5]: 4.85 nM | viability, T/C (second compound 0.1 µM, first compound 0.000316 µM): 105% | viability, T/C (second compound 0.1 µM, first compound 0.001 µM): 111% | viability, T/C (second compound 0.1 µM, first compound 0.00316 µM): 85.9% | viability, T/C (second compound 0.1 µM, first compound 0.01 µM): 6.15% | viability, T/C (second compound 0.1 µM, first compound 0.0316 µM): 0.37% | viability, T/C (second compound 0.1 µM, first compound 0.1 µM): 0.25% | viability, T/C (second compound 0.316 µM, first compound 0.000316 µM): 99.8% | viability, T/C (second compound 0.316 µM, first compound 0.001 µM): 106% | viability, T/C (second compound 0.316 µM, first compound 0.00316 µM): 80.4% | viability, T/C (second compound 0.316 µM, first compound 0.01 µM): 4.86% | viability, T/C (second compound 0.316 µM, first compound 0.0316 µM): 0.4% | viability, T/C (second compound 0.316 µM, first compound 0.1 µM): 0.15% | viability, T/C (second compound 1 µM, first compound 0.000316 µM): 104% | viability, T/C (second compound 1 µM, first compound 0.001 µM): 99.4% | viability, T/C (second compound 1 µM, first compound 0.00316 µM): 78.2% | viability, T/C (second compound 1 µM, first compound 0.01 µM): 4.23% | viability, T/C (second compound 1 µM, first compound 0.0316 µM): 0.34% | viability, T/C (second compound 1 µM, first compound 0.1 µM): 0.23% | viability, T/C (second compound 3.16 µM, first compound 0.000316 µM): 108% | viability, T/C (second compound 3.16 µM, first compound 0.001 µM): 111% | viability, T/C (second compound 3.16 µM, first compound 0.00316 µM): 88% | viability, T/C (second compound 3.16 µM, first compound 0.01 µM): 5.7% | viability, T/C (second compound 3.16 µM, first compound 0.0316 µM): 0.29% | viability, T/C (second compound 3.16 µM, first compound 0.1 µM): 0.28% | viability, T/C (second compound 10 µM, first compound 0.000316 µM): 103% | viability, T/C (second compound 10 µM, first compound 0.001 µM): 96.4% | viability, T/C (second compound 10 µM, first compound 0.00316 µM): 74.5% | viability, T/C (second compound 10 µM, first compound 0.01 µM): 8.66% | viability, T/C (second compound 10 µM, first compound 0.0316 µM): 0.32% | viability, T/C (second compound 10 µM, first compound 0.1 µM): 0.38%

IC50 (curve of compound): 226 nM and > 300 nM
Compound: Nc1ncn(C2CC(O)C(CO)S2)c(=O)n1 (configuration not stated)
viability, T/C (compound 0.000949 µM): 103% and 99.3% | viability, T/C (compound 0.003 µM): 105% and 110% | viability, T/C (compound 0.00949 µM): 104% and 105% | viability, T/C (compound 0.03 µM): 93.2% and 90.9% | viability, T/C (compound 0.0949 µM): 77.6% and 73.8% | viability, T/C (compound 0.3 µM): 41.2% and 53.5%
